The text below walks through data of patent US20080269251A1, “Substituted Pyrazinone Derivatives as Alpha2C-Adrenoreceptor Antagonists” (priority 2005, published 2008).

A value given as a limit tells only on which side of the number the result lay.

In one data set the target is T1, 5HT-transporter (Homo sapiens, UniProt P31645).
T1 construct: Human platelet membranes (Oceanix Biosciences Corporation, Hanover, Md., USA) were thawed; tissue Oceanix Biosciences Corporation, Hanover, Md., USA; host or cells: human platelet membranes
T1 sequence (P31645 whole entry): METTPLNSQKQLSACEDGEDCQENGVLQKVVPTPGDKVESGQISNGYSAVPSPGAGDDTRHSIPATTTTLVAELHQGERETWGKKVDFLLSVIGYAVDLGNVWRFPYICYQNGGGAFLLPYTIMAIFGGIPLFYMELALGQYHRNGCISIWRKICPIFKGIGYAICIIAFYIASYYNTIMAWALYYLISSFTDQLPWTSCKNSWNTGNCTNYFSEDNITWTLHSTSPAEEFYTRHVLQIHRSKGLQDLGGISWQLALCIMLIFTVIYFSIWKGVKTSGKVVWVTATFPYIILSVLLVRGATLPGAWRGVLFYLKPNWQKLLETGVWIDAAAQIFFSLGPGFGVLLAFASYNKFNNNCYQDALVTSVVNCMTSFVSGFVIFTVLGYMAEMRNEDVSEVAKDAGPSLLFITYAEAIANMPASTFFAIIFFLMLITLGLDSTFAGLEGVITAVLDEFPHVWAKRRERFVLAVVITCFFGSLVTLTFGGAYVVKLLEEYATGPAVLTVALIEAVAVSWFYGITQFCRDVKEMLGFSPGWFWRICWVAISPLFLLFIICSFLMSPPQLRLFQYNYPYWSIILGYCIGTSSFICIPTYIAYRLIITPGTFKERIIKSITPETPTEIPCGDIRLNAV
The experiment in a line: Binding experiment for the 5HT-transporter ([3H]paroxetine, human platelet membranes). As to conditions: [3H]paroxetine 0.5 nM, 60 min at 25° C., read-out: h-5HTT pIC50 (converted). Put shortly:
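Competition binding of [3H]paroxetine to human platelet membranes in Tris-HCl 50 mM with 120 mM NaCl and 5 mM KCl; bound radioligand separated by GF/B filtration and counted.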

Data set [1] deals with T2, human adrenergic-α2A receptor (Homo sapiens, UniProt P08913).
T2 construct: expressed in transfected cells; host or cells: CHO cells, stably transfected; membrane preparation
T2 sequence (P08913 1-465): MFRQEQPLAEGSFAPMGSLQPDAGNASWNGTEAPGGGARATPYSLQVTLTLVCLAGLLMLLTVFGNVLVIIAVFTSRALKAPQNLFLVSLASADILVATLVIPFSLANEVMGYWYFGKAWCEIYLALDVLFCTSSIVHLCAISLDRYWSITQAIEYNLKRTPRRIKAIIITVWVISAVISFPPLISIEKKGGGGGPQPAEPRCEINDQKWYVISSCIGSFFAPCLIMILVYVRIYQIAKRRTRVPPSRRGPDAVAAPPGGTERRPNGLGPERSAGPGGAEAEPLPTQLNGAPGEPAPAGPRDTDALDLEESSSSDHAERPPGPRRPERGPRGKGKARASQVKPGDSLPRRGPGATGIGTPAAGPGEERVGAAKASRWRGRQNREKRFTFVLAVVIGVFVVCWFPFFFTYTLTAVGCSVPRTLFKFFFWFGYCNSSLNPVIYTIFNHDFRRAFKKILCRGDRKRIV
The experiment in a line: Radioligand binding experiment for hα2A-adrenergic receptor ([3H]raulwolscine). The conditions noted are these: [3H]raulwolscine 1 nM, 60 minutes at 25° C.; read-out: h-α2A pIC50 (converted). In outline:
(§1)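 CHO membranes expressing human α2A or α2C receptors were incubated with 1 nM [^3H]raulwolscine for 60 min at 25° C in glycylglycine 25 mM, pH 8.0, then filtered. Nonspecific binding was defined with 1 μM oxymetazoline for α2A and 1 μM spiroxatrine for α2C. pIC50 came from sigmoidal competition curves.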

Data set [2] addresses T3, human adrenergic-α2C receptor (Homo sapiens, UniProt P18825).
T3 construct: expressed in transfected cells; host or cells: CHO cells, stably transfected; membrane preparation
T3 sequence (P18825 1-462): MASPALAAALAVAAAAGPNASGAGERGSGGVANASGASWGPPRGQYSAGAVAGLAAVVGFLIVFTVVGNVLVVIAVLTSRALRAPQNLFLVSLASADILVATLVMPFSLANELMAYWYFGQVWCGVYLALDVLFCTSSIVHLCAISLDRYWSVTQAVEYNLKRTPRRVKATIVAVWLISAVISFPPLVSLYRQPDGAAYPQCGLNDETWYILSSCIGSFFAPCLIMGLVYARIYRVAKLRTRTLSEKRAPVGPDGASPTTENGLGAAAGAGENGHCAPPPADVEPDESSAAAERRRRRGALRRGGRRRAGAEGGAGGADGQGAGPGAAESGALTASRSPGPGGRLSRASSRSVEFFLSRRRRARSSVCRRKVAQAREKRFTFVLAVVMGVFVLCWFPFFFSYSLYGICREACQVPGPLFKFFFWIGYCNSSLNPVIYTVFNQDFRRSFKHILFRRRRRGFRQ
The experiment in a line: Radioligand binding experiment for hα2C-adrenoceptor ([3H]raulwolscine). The conditions noted are these: [3H]raulwolscine 1 nM, 60 minutes at 25° C.; read-out: h-α2C pIC50 (converted). In outline: as §1

By melting point is commonly meant the temperature of the solid-liquid transition. On to `CCCCNc1cccc(-n2ccnc(NC3CCN(Cc4ccc5ccccc5c4)CC3)c2=O)c1` [1-05], for which the melting point amounted to 117.5 °C. Besides, at 5HT-transporter, the IC50 was 20 nM. In data set [1], the IC50 was 39.8 nM. Moreover, the IC50 in data set [2] was 15.8 nM.

On to `CCCNC(=O)c1ccc(-n2ccnc(NC3CCN(Cc4ccc5ccccc5c4)CC3)c2=O)cc1` [1-09], for which the melting point was determined as 210.1 °C. Further, the IC50 on 5HT-transporter is 20 nM. In addition, the IC50 in data set [1] was 200 nM. Besides, the IC50 in data set [2] is 39.8 nM.

Regarding `CCCC(=O)NCc1ccc(-n2ccnc(NC3CCN(Cc4ccc5ccccc5c4)CC3)c2=O)cc1F` [1-26], the melting point was 95 °C. The IC50 at 5HT-transporter is 7.94 nM. Further, the IC50 in data set [1] was 398 nM. Besides, the IC50 in data set [2] was 7.94 nM.

Take `O=c1c(NC2CCN(Cc3ccc4ccccc4c3)CC2)nccn1-c1ccc(NCC2CCCO2)cc1` (stereo not drawn) [1-78]: the melting point was > 300 °C. Also, the IC50 at 5HT-transporter was 15.8 nM. Further, the IC50 in data set [1] was 200 nM. In data set [2], the IC50 is 10 nM.

As to `O=c1c(NC2CCN(Cc3ccc4ccccc4c3)CC2)nccn1-c1ccc(CNCC2CCCO2)cc1` (stereo not drawn) [1-79a], the melting point is > 300 °C. For the same compound, the IC50 on 5HT-transporter is 3.16 nM. Further, the IC50 in data set [1] was 158 nM. Besides, the IC50 in data set [2] was 5.01 nM.

Consider `O=C(NCCN1CCCCC1)c1ccc(-n2ccnc(NC3CCN(Cc4ccc5ccccc5c4)CC3)c2=O)cc1` [1-88], for which the melting point turned out to be 172.3 °C. At 5HT-transporter, the IC50 is 3.16 nM. Also, the IC50 in data set [1] is 79.4 nM. Further, the IC50 in data set [2] was 25.1 nM.

The compound `O=C(NCCN1CCOCC1)c1ccc(-n2ccnc(NC3CCN(Cc4ccc5ccccc5c4)CC3)c2=O)cc1` [1-91] yielded a melting point of 271 °C. Further, the IC50 at 5HT-transporter is 15.8 nM. Besides, in data set [1], the IC50 is 316 nM. In data set [2], the IC50 is 63.1 nM.

Turning to `O=c1c(NC2CCN(Cc3ccc4ccccc4c3)CC2)nccn1-c1ccc(NCCN2CCOCC2)cc1` [1-92], the melting point amounted to 195.3 °C. Moreover, the IC50 on 5HT-transporter is 12.6 nM. Further, the IC50 in data set [1] is 316 nM. Moreover, the IC50 in data set [2] was 15.8 nM.

As for `O=C(CCN1CCOCC1)Nc1ccc(-n2ccnc(NC3CCN(Cc4ccc5ccccc5c4)CC3)c2=O)cc1` [1-97], the melting point came out at 183.4 °C. The IC50 at 5HT-transporter is 15.8 nM. Moreover, the IC50 in data set [1] is 316 nM. For the same compound, the IC50 in data set [2] was 12.6 nM.

In turn, `C=CCSc1ncccc1C(=O)NCc1ccc(-n2ccnc(NC3CCN(Cc4ccc5ccccc5c4)CC3)c2=O)cc1` [1-102] displayed a melting point of 117.7 °C. Moreover, the IC50 on 5HT-transporter is 15.8 nM. For the same compound, the IC50 in data set [1] is 316 nM. Moreover, the IC50 in data set [2] is 63.1 nM.

`O=C(c1ccc(-n2ccnc(NC3CCN(Cc4ccc5ccccc5c4)CC3)c2=O)cc1)N1CCOCC1` [2-08] returned a melting point of 271.4 °C. Moreover, at 5HT-transporter, the IC50 is 63.1 nM. In addition, the IC50 in data set [1] was 100 nM. Moreover, the IC50 in data set [2] is 25.1 nM.

Turning to `O=c1c(NC2CCN(Cc3ccc4ccccc4c3)CC2)nccn1CCN1CCCCC1` [2-10], the melting point worked out at 161.2 °C. In addition, the IC50 at 5HT-transporter was 158 nM. Further, the IC50 in data set [1] is 200 nM. The IC50 in data set [2] was 25.1 nM.

In turn, `O=C1c2ccccc2C(=O)N1C/C=C/Cn1ccnc(NC2CCN(Cc3ccc4ccccc4c3)CC2)c1=O` [2-18] showed a melting point of 172.8 °C. Further, the IC50 on 5HT-transporter was 3.98 nM. For the same compound, in data set [1], the IC50 is 79.4 nM. Moreover, in data set [2], the IC50 was 3.98 nM.

With `O=C1c2ccccc2C(=O)N1CCCn1ccnc(NC2CCN(Cc3ccc4ccccc4c3)CC2)c1=O` [2-19], the melting point worked out at 76.5 °C. Also, the IC50 at 5HT-transporter is 12.6 nM. In addition, the IC50 in data set [1] is 126 nM. Moreover, the IC50 in data set [2] was 3.98 nM.

For the compound `O=C1c2ccccc2C(=O)N1CC#CCn1ccnc(NC2CCN(Cc3ccc4ccccc4c3)CC2)c1=O` [2-20], the melting point stood at 96.3 °C. Moreover, the IC50 at 5HT-transporter is 15.8 nM. In addition, the IC50 in data set [1] was 398 nM. The IC50 in data set [2] is 7.94 nM.

In the case of `COC(=O)c1ccc(-n2ccnc(NC3CCN(Cc4ccc5ccccc5c4)CC3)c2=O)cc1` [3-05], the melting point was determined as 196.5 °C. Also, the IC50 at 5HT-transporter was 39.8 nM. Further, the IC50 in data set [1] was 100 nM. Besides, in data set [2], the IC50 is 79.4 nM.

`O=c1c(NC2CCN(Cc3ccc4ccccc4c3)CC2)nccn1-c1ccc(COCCN2CCOCC2)cc1` [3-13] yielded a melting point of 153.9 °C. Further, at 5HT-transporter, the IC50 was 5.01 nM. Further, in data set [1], the IC50 is 200 nM. Also, the IC50 in data set [2] was 3.98 nM.

With `O=c1c(NC2CCN(Cc3ccc4ccccc4c3)CC2)nccn1-c1ccsc1` [6-05], the melting point is 152.8 °C. In addition, the IC50 on 5HT-transporter is 39.8 nM. Further, the IC50 in data set [1] is 126 nM. Further, the IC50 in data set [2] was 39.8 nM.

Regarding `O=c1c(NC2CCN(Cc3ccc4ccccc4c3)CC2)nccn1-c1cccnc1` [6-06], the melting point is > 300 °C. Besides, at 5HT-transporter, the IC50 is 100 nM. The IC50 in data set [1] is 398 nM. Moreover, in data set [2], the IC50 is 50.1 nM.

For `O=c1c(NC2CCN(Cc3ccc4ccccc4c3)CC2)nccn1-c1ccncc1` [6-07], the melting point turned out to be 125.1 °C. The IC50 on 5HT-transporter was 100 nM. In addition, the IC50 in data set [1] was 200 nM. For the same compound, the IC50 in data set [2] is 63.1 nM.

With `O=c1c(NC2CCN(Cc3ccc4ccccc4c3)CC2)nccn1-c1ccc2c(c1)CN(Cc1ncc[nH]1)CC2` [6-14], the melting point is 134.7 °C. The IC50 on 5HT-transporter is 15.8 nM. Further, the IC50 in data set [1] was 79.4 nM. Besides, in data set [2], the IC50 was 6.31 nM.
